Experiment [1] deals with T1, A1AdoR (Homo sapiens, UniProt P30542).
T1 construct: purchased PerkinElmer ES-010-M400UA
T1 sequence (P30542 1-326): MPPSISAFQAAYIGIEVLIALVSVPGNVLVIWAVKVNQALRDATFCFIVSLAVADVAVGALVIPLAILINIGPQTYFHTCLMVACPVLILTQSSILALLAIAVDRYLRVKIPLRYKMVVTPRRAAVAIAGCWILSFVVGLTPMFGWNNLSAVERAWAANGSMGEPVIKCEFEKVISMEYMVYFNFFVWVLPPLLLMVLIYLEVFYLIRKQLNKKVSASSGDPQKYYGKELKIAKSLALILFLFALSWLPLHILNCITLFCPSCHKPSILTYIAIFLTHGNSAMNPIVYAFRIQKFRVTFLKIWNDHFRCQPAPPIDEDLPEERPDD
The experiment is described as follows: Adenosine receptor binding assay, A1 ([3H]-DPCPX). As to conditions: ratio A1 vs A2A binding. Summed up: (§1)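 Filtration binding on membranes: A2A in HEK-293 with 6 nM [3H]-CGS-21680, Tris pH 7.4, 2 h; A2B in HEK-293 with 8 nM [3H]-DPCPX, HEPES pH 7.0, 1 h; A1 in CHO-K1 with 1 nM [3H]-DPCPX, HEPES pH 7.4, 1 h; room temperature. 8-point dilutions; IC50 converted to Ki (Cheng–Prusoff).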

The subject of experiment [2] is phospho-CREB (pCREB). Nature of the experiment: Human whole blood phospho-CREB (pCREB) assay / modulation of pCREB in human immune cells. It counts as cell-based. The settings on record: agonist (NECA or CGS-21680)-stimulated human blood cells. How it is done: Fresh human blood samples are derived from healthy volunteers and processed in heparin tubes. 67.5 ul of whole blood is aliquoted to each well in a 96-well plate and incubated at 37° C. for 30 min. Testing compounds are diluted with DMSO to make 8-point 3-fold serial dilution and 3.5 ul (20×) is added to each well. Cells are incubated with the compounds at 37° C. for 30 min. NECA (5 uM) is then added to each well and cells are incubated for 30 min at 37° C. Following the stimulation, cells are transferred to a 96-well deep well plates and fixed with 1 ml/well of lyse/fix buffer (1×) (BD Biosciences #558049) with vigorous shake at 37° C. for 10 min. Cells are centrifuged at 600 g for 6 min and washed twice with PBS, followed by addition of 800 ul/well Perm buffer III (BD Biosciences #558050). Cells are then pelleted at 600 g for 6 min, washed with FACS buffer (PBS+0.2% BSA+1 mM EDTA) and stained for 40 min at room temperature in the dark with an antibody cocktail containing PE mouse anti-human CD3 (BD Biosciences #555333, 1 ul/well), FITC mouse anti-human CD4 (BD Biosciences #5555346, 1 ul/well), PerCP-Cy™5.5 mouse anti-human CD8 (BD Biosciences #565310, 1 ul/well) and phospho-CREB (Ser133) (87G3) Rabbit mAb (Alexa Fluor® 647 Conjugate, CST #14001, 0.5 ul/well). Cells are then washed twice with FACS buffer and acquired on a flow cytometer (Sony Cell Sorter SH800). Data were analyzed using FlowJo version 9. The level of CREB phosphorylation from unstimulated cells (Low control: LC) and NECA-stimulated cells (High control: HC) are determined as mean fluorescent intensity (MFI) in stimulated condition/mean fluorescent intensity in unstimulated condition. % Inhibition is calculated as (MFI of HC-MFI of assay well)/(MFI of HC-MFI of LC)×100%. Data are analyzed and IC50s calculated using GraphPad Prism 5 and the model “log(inhibitor) vs. response—Variable slope”.
The A2A receptor is known to mediate CREB phosphorylation.
Venous blood from healthy volunteers, all of whom signed an informed consent approved by the Ethics Committee (FOR—UIC-BV-050-01-01 ICF HBS HD Version 5.0), was obtained via ImmuneHealth (Centre Hospitalier Universitaire Tivoli, La Louviere,
15 Belgium). Peripheral blood cells were treated with A2AR agonists CGS-21680 or NECA (Sigma-Aldrich, Diegem, Belgium), and a serial dilution of compounds disclosed herein (all used stock solutions at 10 mM in DMSO). All dilutions were prepared in RPMI1640 medium (with UltraGlutamine; Lonza, Venders, Belgium), and cells were incubated with compounds in a 37° C. humidified tissue culture incubator with 5% CO2.
After stimulation, cells were fixed and permeabilized, followed by intracellular staining using mouse anti-human pCREB antibodies (Clone J151-21; BD Biosciences) at room temperature. Data were acquired using an LSRFortessa flow cytometer (BD Biosciences) and analyzed using FlowJo software (FlowJo, LLC, Ashland, Oregon).

Experiment [3] concerns the target T2, human A2A AdoR (Homo sapiens, UniProt P29274).
T2 construct: purchased PerkinElmer RBHA2AM400UA
The experiment is described as follows: Adenosine receptor binding assay, A2A ([3H]-CGS-21680). As to conditions: membranes of HEK-293 cells expressing human A2A AdoR; read-out: hA2A IC50. Summed up:
as §1

In experiment [4] the target is T3, human A2B AdoR (Homo sapiens, UniProt P29275).
T3 construct: purchased PerkinElmer ES-013-M400UA
T3 sequence (P29275 1-332): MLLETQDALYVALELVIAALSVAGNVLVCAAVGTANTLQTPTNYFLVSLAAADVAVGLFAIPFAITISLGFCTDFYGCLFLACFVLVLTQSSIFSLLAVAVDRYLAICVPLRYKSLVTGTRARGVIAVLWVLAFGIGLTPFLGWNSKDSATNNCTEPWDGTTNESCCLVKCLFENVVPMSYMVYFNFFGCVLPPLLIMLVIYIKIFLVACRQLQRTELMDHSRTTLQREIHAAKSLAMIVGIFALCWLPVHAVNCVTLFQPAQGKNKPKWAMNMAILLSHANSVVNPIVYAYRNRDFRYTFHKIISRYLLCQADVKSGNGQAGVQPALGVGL
Nature of the experiment: Adenosine receptor binding assay, A2B ([3H]-DPCPX). As to conditions: ratio A2B vs A2A binding. Here is the method: Membranes prepared from CHO-K1 cells stably expressing Human AiAdoR (ES-010-M400UA), HEK-293 cells stably expressing human A2A AdoR (RBHA2AM400UA), HEK-293 cells stably expressing human A2B AdoR (ES-013-M400UA) and CHO-K1 cells stably expressing Human A3 AdoR (ES-012-M400UA) were purchased from PerkinElmer (Waltham, Mass., USA) and stored at −80° C. until use. Binding assays are performed using the radioligands. The final concentrations are as follows: [3H]-DPCPX (PerkinElmer, NET974001MC) at 1 nM for A1AdoR; [^3H]-CGS-21680 (PerkinElmer, NET1021250UC) at 6 nM for A2AAdoR, [3H]-DPCPX (PerkinElmer, NET974001MC) at 8 nM for A2BAdoR; [^3H]-HEMADO (ARC, Cat: ART1456) at 1 nM for A3AdoR. Testing compounds are diluted with DMSO to make 8-point 4-fold serial dilution. Nonspecific binding (Low control: LC) and total binding (High control: HC) are determined in the presence or absence of saturated cold ligand. Specific binding is calculated by subtracting nonspecific binding from total binding. All assays are performed in a final volume of 200 μl containing 1 μl of the test compound in DMSO, 100 μl of membrane preparation, and 99 μl of the radioligand in assay buffer (A1AdoR: 25 mM HEPES pH 7.4, 5 mM MgCl2, 1 mM CaCl2), 100 mM NaCl; A2AAdoR: 50 mM Tris HCl pH 7.4, 10 mM MgCl2, 1 mM EDTA; A2BAdoR: 50 mM HEPES pH 7.0, 5 mM MgCl2, 1 mM EDTA; A3AdoR: 25 HEPES pH 7.4, 10 mM MgCl2, 1 mM CaCl2), 0.5% BSA). The incubation is performed at room temperature with shaking at 300 rpm for 1 hour for A1AdoR, A2BAdoR and A3AdoR and 2 hours for A2AAdoR. After the incubation, the assay mixture is filtered through 96 GF/C filter plates (Perkin Elmer #6005174) using Perkin Elmer Filtermate Harvester, and then washed four times with ice-cold washing buffer (A1AdoR: 25 mM HEPES pH 7.4, 5 mM MgCl2, 1 mM CaCl2), 100 mM NaCl; A2AAdoR: 50 mM Tris HCl pH 7.4, 154 mM NaCl; A2BAdoR: 50 mM HEPES pH 6.5, 5 mM MgCl2, 1 mM EDTA, 0.2% BSA; A3AdoR: 50 mM Tris HCl pH 7.4). The filters are dried for 1 hour at 50° C. and [^3H] trapped on filter counted for radioactivity in Perkin Elmer Microscint 20 cocktail (#6013329) using Perkin Elmer MicroBeta2 Reader. The results are expressed as a percent inhibition of the control radioligand specific binding calculated using the following equation: % Inhibition=(1−(Assay well-Average_LC)/(Average_HC−Average_LC))×100%. Data are analyzed and IC50 is calculated using GraphPad Prism 5 and the model “log(inhibitor) vs. response—Variable slope”. The binding affinity of the compounds is determined by using the Cheng and Prusoff equation Ki=IC50/(1+[radioligand]/Kd).

Molecules are shown by their SMILES.

T2 sequence (P29274 whole entry): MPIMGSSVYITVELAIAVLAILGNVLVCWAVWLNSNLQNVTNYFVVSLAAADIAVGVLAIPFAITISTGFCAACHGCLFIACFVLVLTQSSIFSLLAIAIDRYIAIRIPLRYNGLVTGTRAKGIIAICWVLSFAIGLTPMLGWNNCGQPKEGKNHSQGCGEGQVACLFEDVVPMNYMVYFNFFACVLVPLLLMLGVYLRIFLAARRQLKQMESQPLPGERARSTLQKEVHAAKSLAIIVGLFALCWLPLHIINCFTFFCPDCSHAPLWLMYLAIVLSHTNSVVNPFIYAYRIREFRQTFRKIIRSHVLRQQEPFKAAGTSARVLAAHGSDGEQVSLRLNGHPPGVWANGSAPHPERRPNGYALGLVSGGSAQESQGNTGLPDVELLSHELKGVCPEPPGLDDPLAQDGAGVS

As a reminder, the EC50 is the concentration giving half of the maximal effect. The low end stands for an effect from little substance, the high end for a need for much substance. The term IC50 denotes the midpoint of a concentration-inhibition curve. With `Nc1nc2c(cc(C(=O)O)n2CCN2CCN(c3cc(-c4ncco4)ccc3F)CC2)c2nc(-c3ccccn3)nn12` [5-amino-7-(2-(4-(2-fluoro-5-(oxazol-2-yl)phenyl)piperazin-1-yl)ethyl)-2-(pyridin-2-yl)-7H-pyrrolo[3,2-e][1,2,4]triazolo[1,5-c]pyrimidine-8-carboxylic acid], the “A1/A2A Selectivity” value in experiment [1] is given as “b (greater than 100 but less than or equal to 1000)”. The molecule further came in with a 50% effective concentration (EC50) in experiment [2] greater than 100 nM. Besides, the IC50 in experiment [3] was no more than 20 nM. Also, the “A2B/A2A Selectivity” value in experiment [4] is “a (greater than 1000)”.

Turning to `Cc1noc2cc(F)c(N3CCN(CCn4c(C(N)=O)c(Cl)c5c4nc(N)n4nc(-c6ccccn6)nc54)CC3)cc12` [5-amino-9-chloro-7-[2-[4-(6-fluoro-3-methyl-1,2-benzoxazol-5-yl)piperazin-1-yl]ethyl]-2-(2-pyridyl)-[1,2,4]triazolo[1,5-c]pyrrolo[3,2-e]pyrimidine-8-carboxamide], the “A1/A2A Selectivity” value in experiment [1] was “a (greater than 1000)”. The EC50 in experiment [2] is no more than 20 nM. Further, the IC50 in experiment [3] is no more than 20 nM. Also, the “A2B/A2A Selectivity” value in experiment [4] is “a (greater than 1000)”.
